Measurements: patent EP1019392B1, “TRICYCLIC AMIDES USEFUL FOR INHIBITION OF G-PROTEIN FUNCTION AND FOR TREATMENT OF PROLIFERATIVE DISEASES” (SCHERING CORPORATION, priority 1995, dated 1997)
Read-outs that look alike come from different tables or passages of the source.

How the values were obtained:
[1] = system: Normal human HEPM fibroblasts; assay: Cell Mat Assay, normal cell mat; assay type: cell-based; conditions: Homo sapiens, Fibroblast, normal monolayer
[2] = system: DLD-1 (human colon carcinoma cells, ATCC # CCL 221); assay: In Vivo Anti-Tumor Studies, subcutaneous DLD-1 tumors; parameters: species or system athymic nu/nu female mice; conditions: Mus musculus, DLD-1, po, QID, 4 weeks, range over the listed compounds; for inhibition in vivo at 10 mg/kg: 10 mg/kg p.o.; for inhibition in vivo at 50 mg/kg: 50 mg/kg p.o.
Excerpt: Tumor cells (5 X 10^5 to 8 X 10^6) of DLD-1 (human colon carcinoma cells, ATCC # CCL 221) are innolculated subcutaneously into the flank of 5-6 week o;d athymic nu/nu female mice.

[3] = system: DLD-1-BAG human colon carcinoma cells expressing as activated K-ras gene; assay: Cell Mat Assay, DLD-1 tumor cells; assay type: cell-based
[4] = system: Ras-CVLS processing in COS monkey kidney cells; assay: COS cell assay: inhibition of Ras-CVLS processing (Western blot); assay type: cell-based
[5] = system: SW620-BAG human colon carcinoma cells expressing an activated K-ras gene; assay: Cell Mat Assay, SW620 tumor cells; assay type: cell-based
[6] = system: T24-BAG4 human bladder carcinoma cells expressing an activated H-ras gene; assay: Cell Mat Assay, T24 tumor cells; assay type: cell-based; conditions: Homo sapiens, read-out: Tumor (T-24) IC50
[7] = Homo sapiens, SW-620, Mat assay

| SMILES | IC50 [1] [µM] | inhibition in vivo at 10 mg/kg [2] [%] | inhibition in vivo at 50 mg/kg [2] [%] | IC50 ([3]; Homo sapiens, DLD-1, Mat assay) [µM] | IC50 ([4]; Primates, COS) [µM] | IC50 [5, 7] [µM] | IC50 [6] [µM] | IC50 ([3]; Mat assay) [µM] | IC50 ([5]; Mat assay) [µM] | IC50 [4] [µM] |
| --- | --- | --- | --- | --- | --- | --- | --- | --- | --- | --- |
| O=C(Cc1cc[n+]([O-])cc1)N1CCN([C@H]2c3ccc(Cl)cc3CCc3cc(Br)cnc32)CC1 [Example 16B] | > 25 | 7 to 50 | 35.4 to 83 | 6.25 | 0.125 | 25 | < 1.6 |  |  |  |
| O=C(Cc1cc[n+]([O-])cc1)N1CCN([C@@H]2c3ccc(Cl)cc3CCc3cc(Br)cnc32)CC1 [Example 16A] |  |  |  |  | 0.5 |  |  |  |  |  |
| O=C(Cc1cc[n+]([O-])cc1)N1CCC([C@H]2c3ncc(Br)cc3CCc3cc(Cl)cc(Br)c32)CC1 [Example 9] | > 25 | 7 to 50 | 35.4 to 83 | < 1.6 | 0.01 | 6.25 | < 1.6 |  |  |  |
| O=C(Cc1cc[n+]([O-])cc1)N1CCC(=C2c3ncc(Br)cc3CCc3cc(Cl)cc(Br)c32)CC1 (racemic) [Example 7] | > 25 | 7 to 50 | 35.4 to 83 |  | < 0.25 | 6.25 | < 1.6 |  |  |  |
| NC(=O)N1CCC(CC(=O)N2CCC(C3c4ncc(Br)cc4CCc4cc(Cl)cc(Cl)c43)CC2)CC1 (single isomer, unassigned) [Example 18] |  | 7 to 50 | 35.4 to 83 |  | 0.025 |  |  |  |  |  |
| O=C(Cc1cc[n+]([O-])cc1)N1CCC(=C2c3ccc(Cl)c(Br)c3CCc3cc(Br)cnc32)CC1 [Example 2] | > 25 | 7 to 50 | 35.4 to 83 | 6.25 |  | 6.25 | < 1.6 |  |  |  |
| O=C(Cc1cc[n+]([O-])cc1)N1CCN([C@H]2c3ncc(Br)cc3CCc3cc(Cl)cc(Br)c32)CC1 [Example 11A] | > 25 | 7 to 50 | 35.4 to 83 |  | < 0.025 |  | < 1.6 | < 1.6 | > 6.25 |  |
| NC(=O)N1CCC(CC(=O)N2CCC(C3c4ccc(Cl)c(Br)c4CCc4cc(Br)cnc43)CC2)CC1 (single isomer, unassigned) [Example 13] |  | 7 to 50 | 35.4 to 83 |  |  |  | < 1.6 |  |  | 0.42 |
| O=C(Cc1cc[n+]([O-])cc1)N1CCN([C@H]2c3ccc(Cl)c(Br)c3CCc3cc(Br)cnc32)CC1 [Example 5] | > 25 | 7 to 50 | 35.4 to 83 | 3.1 |  | 6.25 | < 1.6 |  |  |  |
| O=C(Cc1cc[n+]([O-])cc1)N1CCC(C2c3ccc(Cl)c(Br)c3CCc3cc(Br)cnc32)CC1 (single isomer, unassigned) [Example 14A] | > 25 | 7 to 50 | 35.4 to 83 | 6.25 |  | 12.5 | < 1.6 |  |  | 0.48 |
